The target of series [1] is T1, h-NK1 receptors (Homo sapiens, UniProt P25103).
T1 construct: expressed in transfected cells; host or cells: CHO cells (permanent expression), crude cell membranes
Briefly: Evaluation of NK1 antagonist transport efficiency to the central nervous system using a h-NK1 receptor binding assay (brain extract after i.v. dosing of rats). As to conditions: 5 min; compound extracted from brain of male SD rats 5 min after i.v. injection at the dose of 1 mg/kg; CHO cell membranes expressing h-NK1; read-out: inhibition rate of 125I-BH-Substance P binding to h-NK1 receptors. The procedure: A. Evaluation of NK1 Antagonist Transport Efficiency to the Cental Nervous System using a h-NK1 Receptor Binding Assay
(1) Administration of Test Compound and Extraction of the Compound from Brain
Male SD rats were given an i.v. injection of a solution containing a test compound (1 mg/kg). 5 Min later the animals were anesthetized by ether, bled and perfused through the aorta ascendens with 20 ml of saline. The brain was rapidly removed, weighed and homogenized in 4 vol. ice-cold distilled water by using Polytoron (KINEMATICA). To extract the test compound, 500 μl of the homogenate, 100 μl of methanol, 500 μl of 0.1 N NaOH and 4 ml of ethyl acetate were mixed by shaking for 10 min at room temperature. The organic phase (2.5 ml) was recovered by centrifugation at 3,000 rpm for 10 min, dried and dissolved in dimethyl sulfoxide.
(2) h-NK1 Receptor Binding Assay
(a) Crude CHO Cell Membrane Preparation
CHO cells permanently expressing h-NK1 receptors were harvested and homogenized with a Dounce homogenizer at 4° C. in a buffer (0.25 M sucrose, 25 mM Tris-HCl (pH 7.4), 10 mM MgCl2, 1 mM EDTA, 5 μg/ml p-APMSF). The homogenate was centrifuged (500×g, 10 min), and the pellet was resuspended in the same buffer, homogenized, and centrifuged. The two supernatants were combined and centrifuged (100,000×g, 1 hour). The crude cell membranes thus isolated were resuspended in a buffer (25 mM Tris-HCl (pH 7.4), 10 mM MgCl2, 1 mM. EDTA, 5 μg/ml p-APMSF) and stored at −80° C. until use.
(b) ^125I-BH-Substance P Binding to the Prepared Membrane
Cell membranes (6 μg/ml) were incubated with ^125I-BH-Substance P (0.1 nM) with or without the extracted compounds in 0.25 ml of a medium (50 mM Tris-HCl (pH 7.4), 5 mM MnCl2, 20 μg/ml chymostatin, 40 μg/ml bacitracin, 4 μg/ml leupeptin, 5 μg/ml p-APMSF, 200 μg/ml BSA) at 22° C. for 90 min. At the end of the incubation period, the contents were quickly filtered through a Blue Mat 11740 filter (pretreated with 0.1% polyethylenimine for 3 hours prior to use) by using SKATRON Cell Harvester. The filter was then washed with a washing buffer (50 mM Tris-HCl (pH 7.4), 5 mM MnCl2). The radioactivity was counted by using an auto gamma counter (Packard RIASTAR 5420A). All data presented are specific binding defined as that displaceable by 3 μM unlabeled Substance P.

Structures can show the parent of a compound that is named as a salt. A value given as a limit tells only on which side of the number the result lay.

Usually melting point stands for the temperature, or range, at which the solid turns liquid. A word on the inhibition: it is the share of the control response that was lost under treatment.

T1 sequence (P25103 whole entry): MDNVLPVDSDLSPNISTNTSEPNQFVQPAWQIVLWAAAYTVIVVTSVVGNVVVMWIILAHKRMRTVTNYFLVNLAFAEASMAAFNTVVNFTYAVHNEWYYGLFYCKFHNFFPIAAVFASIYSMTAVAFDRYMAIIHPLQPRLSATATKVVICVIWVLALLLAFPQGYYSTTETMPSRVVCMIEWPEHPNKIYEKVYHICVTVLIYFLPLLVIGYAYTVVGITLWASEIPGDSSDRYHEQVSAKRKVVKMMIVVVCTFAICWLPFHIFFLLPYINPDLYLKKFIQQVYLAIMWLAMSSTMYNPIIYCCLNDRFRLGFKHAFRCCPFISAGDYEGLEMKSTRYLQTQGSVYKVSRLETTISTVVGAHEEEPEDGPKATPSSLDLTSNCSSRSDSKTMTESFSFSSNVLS

In turn, `COC[C@@H]1COCCN1CCN1CCN(C(=O)c2cc(C(F)(F)F)cc(C(F)(F)F)c2)[C@H](Cc2c[nH]c3ccccc23)C1.Cl.Cl` came in with a melting point of 130 to 150 °C.
`CNc1cccc(CC2CN(CC#CCN3CCOCC3(C)C)CCN2C(=O)c2cc(C(F)(F)F)cc(C(F)(F)F)c2)c1` (centres unmarked) (as salt: hydrochloride) [Example 93, 1-[3,5-Bis(trifluoromethyl)benzoyl]-4-[4-(3,3-dimethylmorpholino)-2-butynyl]-2-[3-(N-methylamino)benzyl]piperazine] showed a melting point of 192 to 195 °C.
`Cc1ccc(C[C@@H]2CN(C/C=C/c3cccnc3)CCN2C(=O)c2cc(C(F)(F)F)cc(C(F)(F)F)c2)cc1C.Cl.Cl` [6-(1), (2R)-1-[3,5-Bis(trifluoromethyl)benzoyl]-2-(3,4-dimethylbenzyl)-4-[(E)-3-(3-pyridyl)-2-propenyl]piperazine dihydrochloride] displayed a melting point of 170 to 174 °C. Moreover, the inhibition at 1 mg/kg in series [1] was > 80%.
For `Cc1ccc(C[C@@H]2CN(C/C=C/CN3CCOCC3)CCN2C(=O)c2cc(Cl)cc(Cl)c2)cc1C.Cl.Cl` [16-(2), (2R)-1-(3,5-Dichlorobenzoyl)-2-(3,4-dimethylbenzyl)-4-[(E)-4-morpholino-2-butenyl]piperazine dihydrochloride] the same measures were > 230 °C and > 80%.
For `Cl.Cl.O=C(c1cc(C(F)(F)F)cc(C(F)(F)F)c1)N1CCN(C/C=C/c2cccnc2)C[C@H]1Cc1c[nH]c2ccccc12` [56-(2), (2R)-1-[3,5-Bis(trifluoromethyl)benzoyl]-2-[(1H-indol-3-yl)methyl]-4-[(2E)-3-(3-pyridyl)-2-propenyl]piperazine dihydrochloride] the same measures were 195 to 203 °C and > 80%.
Take `Cc1ccc(C[C@@H]2CN(CC#CCN3CCOC[C@@H]3CF)CCN2C(=O)c2cc(C(F)(F)F)cc(C(F)(F)F)c2)cc1C` [70-(1), (2R)-1-[3,5-Bis(trifluoromethyl)benzoyl]-2-(3,4-dimethylbenzyl)-4-[4-((3R)-3-fluoromethylmorpholino)-2-butynyl]piperazine dihydrochloride]: in series [1], the inhibition at 1 mg/kg was > 80%.
Still for that read-out and setting: under `Cc1ccc(C[C@@H]2CN(CC#CCN3CCOCC(F)C3)CCN2C(=O)c2cc(C(F)(F)F)cc(C(F)(F)F)c2)cc1C` (stereo partly drawn) [70-(2), (2R)-1-[3,5-Bis(trifluoromethyl)benzoyl]-2-(3,4-dimethylbenzyl)-4-[4-(tetrahydro-6-fluoro-1,4-oxazepin-4(5H)-yl)-2-butynyl]piperazine dihydrochloride] stands > 80%.
For `COCC1(C)COCCN1CC#CCN1CCN(C(=O)c2cc(C(F)(F)F)cc(C(F)(F)F)c2)[C@H](Cc2ccc(C)c(C)c2)C1.Cl.Cl` (stereo partly drawn) [71-(1), (2R)-1-[3,5-Bis(trifluoromethyl)benzoyl]-2-(3,4-dimethylbenzyl)-4-[4-(3-methoxymethyl-3-methylmorpholino)-2-butynyl]piperazine dihydrochloride], the melting point was 155 to 160 °C. In addition, the inhibition at 1 mg/kg in series [1] is > 80%.
For `Cc1ccc(C[C@@H]2CN(CC#CCN3[C@@H](C)COC[C@@H]3C)CCN2C(=O)c2cc(C(F)(F)F)cc(C(F)(F)F)c2)cc1C.Cl.Cl` [71-(3), (2R)-1-[3,5-Bis(trifluoromethyl)benzoyl]-2-(3,4-dimethylbenzyl)-4-[4-((3S,5S)-3,5-dimethylmorpholino)-2-butynyl]piperazine dihydrochloride] the same measures were 160 to 165 °C and > 80%.
Consider `CC[C@H]1COCCN1CC#CCN1CCN(C(=O)c2cc(C(F)(F)F)cc(C(F)(F)F)c2)[C@H](Cc2c[nH]c3ccccc23)C1` [73-(2), (2R)-1-[3,5-Bis(trifluoromethyl)benzoyl]-4-[4-((3S)-3-ethylmorpholino)-2-butynyl]-2-[(1H-indol-3-yl)methyl]piperazine dihydrochloride], for which the inhibition at 1 mg/kg in series [1] is > 80%.
Consider `CC[C@@H]1COCCN1CCN1CCN(C(=O)c2cc(C(F)(F)F)cc(C(F)(F)F)c2)[C@H](Cc2ccc(C)c(C)c2)C1` [80-(1), (2R)-1-[3,5-Bis(trifluoromethyl)benzoyl]-2-(3,4-dimethylbenzyl)-4-[2-((3R)-3-ethylmorpholino)ethyl]piperazine dihydrochloride], for which, in series [1], the inhibition at 1 mg/kg is > 80%.
For the molecule `CC[C@@H]1COCCN1CCN1CCN(C(=O)c2cc(C(F)(F)F)cc(C(F)(F)F)c2)[C@H](Cc2c[nH]c3ccccc23)C1` [81-(10), (2R)-1-[3,5-Bis(trifluoromethyl)benzoyl]-4-[2-((3R)-3-ethylmorpholino)ethyl]-2-[(1H-indol-3-yl)methyl]piperazine dihydrochloride], the inhibition at 1 mg/kg in series [1] was > 80%.
Still for that read-out and setting: then `COc1ccc(CC2CN(CC#CCN3CCOCC3(C)C)CCN2C(=O)c2cc(C(F)(F)F)cc(C(F)(F)F)c2)cc1C` (centres unmarked) [85-(3), 1-[3,5-Bis(trifluoromethyl)benzoyl]-4-[4-(3,3-dimethylmorpholino)-2-butynyl]-2-(4-methoxy-3-methylbenzyl)piperazine dihydrochloride], with > 80%; and `Cc1ccc(C[C@@H]2CN(CC#CCN3CCOCC3(C)C)CCN2C(=O)c2cc(N(C)C)cc(C(F)(F)F)c2)cc1C` [90-(5), (2R)-1-[3-(Dimethylamino)-5-(trifluoromethyl)benzoyl]-2-(3,4-dimethylbenzyl)-4-[4-(3,3-dimethylmorpholino)-2-butynyl]piperazine dihydrochloride], with > 80%; and `O=C(c1cc(C(F)(F)F)cc(C(F)(F)F)c1)N1CCN(CC#Cc2cccnc2)C[C@H]1Cc1c[nH]c2ccccc12` [Example 1-(1), (2R)-1-[3,5-bis(trifluoromethyl)benzoyl]-2-[(1H-indol-3-yl)methyl]-4-[3-(3-pyridyl)-2-propynyl]piperazine], with > 80%.
The same measure, in the same setting: then `Cc1ccc(C[C@@H]2CN(CCOCCN3CCOCC3)CCN2C(=O)c2cc(C(F)(F)F)cc(C(F)(F)F)c2)cc1C` [Example 22, (2R)-1-[3,5-Bis(trifluoromethyl)benzoyl]-2-(3,4-dimethylbenzyl)-4-[2-(2-morpholinoethoxy)ethyl]piperazine dihydrochloride], with > 80%; and `O=C(c1cc(C(F)(F)F)cc(C(F)(F)F)c1)N1CCN(CC#CCNCc2cccnc2)C[C@H]1Cc1ccc2ccccc2c1` [Example 30, (2R)-1-[3,5-bis(trifluoromethyl)benzoyl]-4-[4-(3-pyridylmethylamino)-2-butynyl]-2-(2-naphthylmethyl)piperazine trihydrochloride], with > 80%; and `CC[C@H]1COCCN1CC#CCN1CCN(C(=O)c2cc(C(F)(F)F)cc(C(F)(F)F)c2)[C@H](Cc2ccc(C)c(C)c2)C1` [Example 38, (2R)-1-[3,5-bis(trifluoromethyl)benzoyl]-4-[4-((3S)-3-ethylmorpholino)-2-butynyl]-2-(3,4-dimethylbenzyl)piperazine dihydrochloride], with > 80%.
`Cc1ccc(C[C@@H]2CN(Cc3cnn(CC(=O)O)c3)CCN2C(=O)c2cc(C(F)(F)F)cc(C(F)(F)F)c2)cc1C` [Example 47, (2R)-1-[3,5-bis(trifluoromethyl)benzoyl]-4-[[1-(carboxymethyl)-1H-pyrazol-4-yl]methyl]-2-(3,4-dimethylbenzyl)piperazine] came in with a melting point of 223 to 230 °C.
Turning to `COC[C@H]1COCCN1CCCCN1CCN(C(=O)c2cc(C(F)(F)F)cc(C(F)(F)F)c2)[C@H](Cc2ccc(C)c(C)c2)C1` [Example 82, (2R)-1-[3,5-bis(trifluoromethyl)benzoyl]-2-(3,4-dimethylbenzyl)-4-[4-((3S)-3-methoxymethylmorpholino)butyl]piperazine dihydrochloride], the inhibition at 1 mg/kg in series [1] is > 80%.
On the same count and under the same terms, then `CC1(C)COCCN1CC#CCN1CCN(C(=O)c2cc(C(F)(F)F)cc(C(F)(F)F)c2)C(Cc2ccc3c(c2)OCO3)C1` (centres unmarked) [Example 84, 1-[3,5-bis-(trifluoromethyl)benzoyl]-4-[4-(3,3-dimethylmorpholino)-2-butynyl]-2-(3,4-methylenedioxybenzyl)piperazine dihydrochloride], with > 80%.

The values are drawn from patent US6924278B2, “Aroyl-piperazine derivatives, their preparation and their use as tachykinin antagonists” (Fujisawa Pharmaceutical Co., Ltd., priority 1997, dated 2005).
